For this experiment, the system named is anti-dinitolmide monoclonal antibody secreted by hybridoma cell strain DAS3H10. In words: indirect competitive ELISA (IC50 and cross-reaction rates). It counts as binding, mouse. The settings on record: for IC50: dinitolmide monoclonal antibody; for cross-reaction rates: relative to dinitolmide. The source says:
The basic steps for the preparation of the DAS3H10 cell line provided by the invention are: • (1) Preparation and identification of immunogen: 3,5-dinitro-2-methylbenzoic acid, which is a structure analogue of dinitolmide, was used as a raw material and connected to the amino group of the protein carrier with the activated ester method. After the reaction was completed, the complete immunogen and the unconnected small molecule hapten were separated by dialysis. And the complete immunogen was identified by UV-VIS absorption spectrometry. • (2) Immunization of mice: BALB/c mice aged 6-8 weeks were selected for immunization. The immunogen, which was emulsified with […], was injected to the BALB/c mice by subcutaneous injection at multiple points. The Faust complete adjuvant was used for the first immunization, the Faust incomplete adjuvant was used for the booster immunization, and the commixture of the immunogen and normal saline was used for the sprint immunization by intraperitoneal injection. Each immunization dose was half of the previous immunization dose, and the interval between each immunization was three weeks. After the third immunization, blood collection was collected every one week for the detection of serum titer and inhibition. • (3) Cell fusion and cell line establishment: the cell fusion of mouse spleen cells and mouse myeloma cells was accomplished by polyethylene glycol (PEG 2000). After cultured culturing in HAT medium, there was detection of positive cells wells by indirect ELISA, and further detection of the inhibition effect of positive cell wells by indirect competition ELISA. Positive cell wells with the best inhibition effect were subcloned three times by limiting dilution assay, and finally the hybridoma cell strain DAS3H10 was finally screened. • (4) Identification of the properties of hybridoma cell strains: the identification of hybridoma cell strains were determined by HRP, and IC50, cross-reaction rates and affinity were determined by ELISA.
4. Cell screening and cell line establishment: during the cell fusion, half of the RPMI-1640 screening medium of the fusion cell was changed on the 3rd day, and all was replaced by the RPMI-1640 screening medium with 20% fetal bovine serum, 1% of 100×HT on the fifth day. The cell supernatant was used for screening on the 7th day, which is divided into two steps: the first step is to screen out the positive cell wells with indirect ELISA, the second step is to detect the inhibition effect of positive cell wells by indirect competition ELISA with dinitolmide used as the standard substance. The cell wells with good inhibition effect of dinitrotolamine were selected to be subcloned with finite dilution assay, and the inhibition effect was detected in the same way. This process was repeated three times to obtain the cell line.
6. […] Each sample was added to 3 wells. […]
For orientation: An ELISA detects its analyte on a solid surface through an enzyme-linked reagent.

Values after ≈ are worked out from the molar mass of the structure shown. Where only a bound is given, the exact number is not on record here.

The term IC50 denotes the concentration needed to halve the response being measured. The low end stands for higher potency, the high end for lower potency.

The compound `Cc1cc(-n2c(=O)[nH]c(=O)n(C)c2=O)ccc1Oc1ccc(SC(F)(F)F)cc1` [torquoly] gave an IC50 of more than 0.5 µg/mL and a cross-reaction rates of less than 5%.

The compound `N#CC(c1ccc(Cl)cc1)c1c(Cl)cc(-n2ncc(=O)[nH]c2=O)cc1Cl` (centres unmarked) [dikjuli] returned an IC50 of more than 0.5 µg/mL and a cross-reaction rates of less than 5%.

Regarding nicarbazine, the IC50 is more than 0.5 µg/mL and the cross-reaction rates was less than 5%.

Compound `Cc1c(C(N)=O)cc([N+](=O)[O-])cc1[N+](=O)[O-]` [dinitolmide] gave an IC50 of 0.00901 µg/mL (≈ 0.04 µM) and a cross-reaction rates of 100%.

The values are drawn from patent US12286488B2, “Anti-dinitolmide monoclonal antibodies and hybridoma cell strain that secretes them” (JIANGNAN UNIVERSITY, priority 2020, dated 2025).
